Experimental data: patent US7754740B2, “1H-indole-3-carboxylic acid derivatives and their use as PPAR agonists” (Merck Patent GmbH, priority 2005, dated 2010)

Target: T1, chimeric protein PPARγ-Gal4 (Homo sapiens, UniProt P37231)
T1 construct: Gal4 (yeast transcription factor); expressed in transfected cells; host or cells: CV-1 cells (monkey kidney cells)
T1 sequence (P37231 238-503 limits assumed): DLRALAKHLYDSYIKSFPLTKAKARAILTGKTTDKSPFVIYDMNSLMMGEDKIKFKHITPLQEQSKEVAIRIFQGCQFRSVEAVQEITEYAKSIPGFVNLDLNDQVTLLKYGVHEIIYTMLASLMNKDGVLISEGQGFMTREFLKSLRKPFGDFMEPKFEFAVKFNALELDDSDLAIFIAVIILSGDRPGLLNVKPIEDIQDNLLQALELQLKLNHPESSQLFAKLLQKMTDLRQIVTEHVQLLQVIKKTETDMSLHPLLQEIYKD
Assay: PPARγ-Gal4 transactivation (luciferase reporter) test in cotransfected CV-1 cells
Type: cell-based
Protocol: The measurement of the PPAR activation was performed according to a technique described by Lehmann et al. (J. Biol. Chem., 270, (1995),
CV-1 cells (monkey kidney cells) are cotransfected with an expression vector for the chimeric protein PPARγ-Gal4 and with a “reporter” plasmid that allows expression of the luciferase gene placed under the control of a promoter comprising Gal4 response elements.
The cells are seeded in 96-well microplates and cotransfected using a commercial reagent with the reporter plasmid (pG5-tk-pGL3) and the expression vector for the chimeric protein (PPARγ-Gal4). After incubation for 4 hours, whole culture medium (comprising 10% foetal calf serum) is added to the wells. After 24 hours, the medium is removed and replaced with whole medium comprising the test products. The products are left in contact with the cells for 18 hours. The cells are then lysed and the luciferase activity is measured using a luminometer. A PPARγ activation factor can then be calculated by means of the activation of the expression of the reporter gene induced by the product (relative to the control cells that have received no product).
In the absence of the PPARγ ligand binding domain (vector expressing Gal4 alone), the luciferase activity measured in the presence of an agonist is zero.
The following transactivation result was obtained with a concentration of 50 μM on PPARγ.
The transactivation test using the expression of a chimeric protein Gal-4-PPARγ makes it possible to determine also whether an agonist functions as a “full” agonist or as a “partial” agonist in this system.
An agonist is “partial” in this system if it induces a weaker response, i.e. it has lower efficacy, than rosiglitazone, which is a “full” agonist. In concrete terms, in our system, the transactivation obtained at the plateau with a partial agonist will be between 20% and 50% of the maximum response (efficacy) at the plateau of rosiglitazone.

| Structure (SMILES) | Concentration to reach the maximum stimulation of the PPARγ chimeric protein (Gal4-PPARγ transactivation test, CV-1 cells) | Emax (transactivation at the plateau as % of the maximum response (efficacy) of rosiglitazone, CV-1 cells, read-out: Maximum stimulation of the PPARγ chimeric protein obtained with rosiglitazone) | Activation factor of the chimeric protein PPARγ-Gal4 (50 μM, CV-1 cells (monkey kidney cells), 18 hours contact, luciferase reporter, relative to control cells without product (= 1)) |
| --- | --- | --- | --- |
| CCOC(=O)c1c(C)n(CCOC)c2cc(CCCC3CCCC3)c(OCCCC(=O)O)cc12 [Example 31, ethyl 5-(3-carboxypropoxy)-6-(3-cyclopentylpropyl)-1-(2-methoxyethyl)-2-methyl-1H-indole-3-carboxylate] | 1 µM | 24% |  |
| CCOC(=O)c1c(C)n(Cc2ccccc2)c2cc(-c3cccnc3)c(OCCCC(=O)O)cc12 [Example 4, Ethyl-benzyl-5-(3-carboxypropoxy)-2-methyl-6-pyrid-3-yl-1H-indole-3-carboxylate] |  |  | 17 |
